Laboratory results published in patent publication US20100087392A1 (Pierre Fabre Medicament, priority 2007, published 2010).

Test: in vivo
Conditions: rat, po, 20 mg/kg
Protocol: Chromatographic Conditions: • Column: Synergi Fusion-RP 80, 2×50 mm, 4 microns
Mobile Phase: • Channel A: 13.3 mM ammonium formate/6.7 mM formic acid in water • Channel B: 6 mM ammonium formate/3 mM formic acid in water/acetonitrile (1/9, v/v)
• Plot of the curve/obtaining the plasma profile=plasma concentration as a function of the time post administration

AUC: 7190 ng·h/mL | Cmax: 2280 ng/mL | Tmax: 30 min
Structure (SMILES): CC(C)Cc1ccc(C(C)C(=O)O)cc1 (stereo not drawn) [IBU alone, ibuprofen]
